For 4 compounds, cooling effect results are on record in US20060280697A1, “Composition” (Conopco Inc, d/b/a UNILEVER, priority 2005, published 2006).

“Also recorded” adds a separate entry of the source.

The assay in a line: cooling sensation / cooling effect of synthesised compounds.
As for `O=C1NC(c2ccccc2)=CCN1c1ccccc1O` [1-(2′-hydroxyphenyl)-4-phenyl-1,2,3,6-tetrahydropyrimidine-2-one], the cooling effect result is on record as “good cooling effects; also recorded: exhibit a cooling effect”.
On to `O=C1NC(c2cccc([N+](=O)[O-])c2)=CCN1c1ccccc1C(F)(F)F` [1-(2′-trifluoromethylphenyl)-4-(3″-nitrophenyl)-1,2,3,6-tetrahydropyrimidine-2-one], for which the cooling effect entry is given as “good cooling effects; also recorded: exhibit a cooling effect”.
For `COc1cccc(C2=CCN(c3ccccc3O)C(=O)N2)c1` [1-(2′-hydroxyphenyl)-4-(3″-methoxyphenyl)-1,2,3,6-tetrahydropyrimidine-2-one], the cooling effect entry was “good cooling effects; also recorded: exhibit a cooling effect”.
Then `O=C1NC(c2cccc([N+](=O)[O-])c2)=CCN1c1ccccc1` [1-phenyl-4-(3″-nitrophenyl)-1,2,3,6-tetrahydropyrimidine-2-one], with “good cooling effects; also recorded: exhibit a cooling effect”.
